Experimental data: US20240308953A1, “SOLUBLE CHELATOR FOR TARGETING RECOMBINANT PROTEINS” (CUBE BIOTECH GMBH, priority 2021, published 2024)

Tested on: His-tagged proteins
Assay: surface plasmon resonance, immobilized chelator, protein loss during wash
Type: binding
Settings: immobilized for surface plasmon resonance measurements
Text: The affinity of the soluble chelator of the present invention for His-tagged proteins is much higher, compared to the NTA analoga. […] So, a stable, non-reversible protein binding via affinity bonds between metal and poly-His is feasible.

## O=C(O)CN(CC(=O)O)CC(=O)O [NTA, nitrilotriacetic acid]
  protein loss from the chip: protein leaching during wash
